Measurements taken from ChEMBL document CHEMBL1201862, “PubChem BioAssay data set” (2004).
The source made the active and inactive calls.

Tests used:
[1] = target: Neurotensin receptor type 1 (Homo sapiens, UniProt P30989); type: functional;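 note: Image-based confirmatory dose-response assay measuring agonist activity at NTR1; NTR1-expressing U2OS osteosarcoma cells imaged for beta-arrestin GFP spot formation; agonist potency where compounds increase beta-arrestin recruitment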
[2] = Luminescence Cell-Based Dose Response HTS to Identify Inhibitors of 5'UTR Stem-Loop Driven Prion Protein mRNA Translation in H4 Neuroglioblastoma Cells. [Related pubchem assays: 1827 (Project Summary), 1813 (Primary HTS)]; type: functional
[3] = alpha-synuclein stem-loop luciferase translation blockers – H4 neuroglioma cells, luminescence, confirmation (AID 1988); type: functional, cell-based
[4] = Luminescence Cell-Based Dose Retest to Confirm Inhibitors of Cancer Stem Cells. [Related pubchem assays (depositor defined):AID2717, AID2721]; type: functional; details: Homo sapiens
[5] = target: Perilipin-1/ABHD5 (Homo sapiens, UniProt O60240+Q8WTS1); assay: Luminescence-based biochemical high throughput dose response assay for inhibitors of the interaction of the lipase co-activator protein, abhydrolase domain containing 5 (ABHD5) with perilipin-1 (PLIN1) (2K validation set). [Related pubchem assays (depositor defined):AID493027, AID493057]
[6] = target: X-box-binding protein 1 (Homo sapiens, UniProt P17861); type: functional, Cricetulus griseus;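 note: confirmatory dose-response counter-screen serving a CHOP assay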
[7] = target: 1-acylglycerol-3-phosphate O-acyltransferase ABHD5/Perilipin-5 (Homo sapiens, UniProt Q00G26+Q8WTS1); assay: Luminescence-based biochemical high throughput dose response assay for inhibitors of the interaction of the lipase co-activator protein, abhydrolase domain containing 5 (ABHD5) with perilipin-5 (MLDP; PLIN5) (2K validation set). [Related pubchem assays (depositor defined):AID493035, AID493241]
[8] = target: G-protein coupled receptor 35 (Homo sapiens, UniProt Q9HC97); assay: SAR analysis of Antagonists of the GPR35 Receptor using an Image-Based Assay - Set 5. [Related pubchem assays (depositor defined):AID2058, AID2079]; type: functional
[9] = target: G-protein coupled receptor 55 (Homo sapiens, UniProt Q9Y2T6); assay: SAR Analysis of Selective Antagonists of GPR55 using an Image-Based Assay - Set 3. [Related pubchem assays (depositor defined):AID2058, AID2079]; type: functional
[10] = target: Hexokinase (Trypanosoma brucei, UniProt Q38C41); assay: Confirmation assay for inhibitors of Trypanosoma brucei hexokinase 1-Analogue-first series. [Related pubchem assays (depositor defined):AID1430, AID1632, AID2516, AID2560, AID2579, AID2600, AID449725, AID492951]; type: functional
[11] = target: T1, Carboxy-terminal domain RNA polymerase II polypeptide A small phosphatase 1 (Homo sapiens, UniProt Q9GZU7); assay: CTDSP1 inhibitors, concentration-response, biochemical, absorbance readout, ultra-high-throughput screen actives (AID 540297); type: functional
T1 sequence (Q9GZU7 whole entry): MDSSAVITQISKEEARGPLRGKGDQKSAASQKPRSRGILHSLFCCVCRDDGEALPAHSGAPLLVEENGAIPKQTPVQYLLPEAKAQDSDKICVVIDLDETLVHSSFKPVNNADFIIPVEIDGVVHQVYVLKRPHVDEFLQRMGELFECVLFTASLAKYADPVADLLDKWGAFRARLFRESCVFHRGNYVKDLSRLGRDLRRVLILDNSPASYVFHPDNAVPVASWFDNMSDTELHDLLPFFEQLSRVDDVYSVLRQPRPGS

[12] = test system: Vero; assay: viability of Vero cells under compound – cytotoxicity control for flavivirus capping enzyme inhibitors (AID 588742); type: functional; details: Chlorocebus sabaeus
[13] = target: T2, Tyrosine-protein phosphatase non-receptor type 22 (Homo sapiens, UniProt Q9Y2R2); assay: PTPN22 enzyme inhibitors – biochemical, fluorescence, LYP catalytic domain, selectivity assay for LMPTP inhibitor project, dose response (AID 652006); type: functional; details: read-out: IC50_Mean
T2 sequence (Q9Y2R2 whole entry): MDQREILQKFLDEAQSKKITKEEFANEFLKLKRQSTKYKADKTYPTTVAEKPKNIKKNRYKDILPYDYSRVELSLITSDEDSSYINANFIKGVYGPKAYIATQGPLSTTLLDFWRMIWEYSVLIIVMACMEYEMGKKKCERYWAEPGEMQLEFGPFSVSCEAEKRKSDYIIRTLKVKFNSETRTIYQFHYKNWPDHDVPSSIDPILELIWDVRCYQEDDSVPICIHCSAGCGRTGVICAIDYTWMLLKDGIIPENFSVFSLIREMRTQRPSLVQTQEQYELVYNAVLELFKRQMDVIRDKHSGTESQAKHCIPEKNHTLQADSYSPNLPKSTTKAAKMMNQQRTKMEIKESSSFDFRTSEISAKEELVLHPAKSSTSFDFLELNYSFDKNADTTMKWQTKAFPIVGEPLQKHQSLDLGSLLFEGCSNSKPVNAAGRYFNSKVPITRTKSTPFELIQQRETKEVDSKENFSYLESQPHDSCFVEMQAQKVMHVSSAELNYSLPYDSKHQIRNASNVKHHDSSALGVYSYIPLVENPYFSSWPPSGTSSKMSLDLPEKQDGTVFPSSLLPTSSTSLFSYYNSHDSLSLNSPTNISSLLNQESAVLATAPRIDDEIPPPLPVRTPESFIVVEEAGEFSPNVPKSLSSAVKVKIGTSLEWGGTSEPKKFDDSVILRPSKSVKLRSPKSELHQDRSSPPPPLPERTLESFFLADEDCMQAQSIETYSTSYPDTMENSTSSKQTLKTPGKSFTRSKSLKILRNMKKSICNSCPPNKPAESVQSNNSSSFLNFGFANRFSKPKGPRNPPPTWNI

[14] = target: T3, Low molecular weight phosphotyrosine protein phosphatase (Homo sapiens, UniProt P24666); type: functional; details: read-out: IC50_Mean
T3 sequence (P24666 whole entry): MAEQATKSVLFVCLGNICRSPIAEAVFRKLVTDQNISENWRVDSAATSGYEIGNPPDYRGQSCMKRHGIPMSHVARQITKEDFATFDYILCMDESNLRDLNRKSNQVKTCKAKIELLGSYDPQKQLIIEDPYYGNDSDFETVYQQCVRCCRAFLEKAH

[15] = target: Genome polyprotein (dengue virus type 2, UniProt P29990); assay: flavivirus cap methylation enzyme inhibition – biochemical, confirmation dose response, primary screen (AID 588689); type: functional
[16] = target: Envelope glycoprotein gp160 (Human immunodeficiency virus 1, UniProt Q6QLK5); assay: cell-free HIV fusion peptide-binding blockers – biochemical, uHTS, fluorescence dequenching, […] (AID 1986)
[17] = target: T3, Low molecular weight phosphotyrosine protein phosphatase; type: functional; details: read-out: IC50_Mean; remark: listed apart in the source
[18] = target: Eukaryotic translation initiation factor 4H (Homo sapiens, UniProt Q15056); assay: inhibitors of translation initiation factor eIF4H – SAR follow-up (AID 435011); type: functional
[19] = target: Polyadenylate-binding protein 1 (Homo sapiens, UniProt P11940); assay: PABP inhibition in translation initiation, SAR follow-up (AID 435018); type: functional
[20] = target: Nonstructural protein 1 (Influenza A virus, UniProt Q194T2); type: functional, Influenza A virus (A/California/07/2009(H1N1))
[21] = target: T4, Mannose-6-phosphate isomerase (Homo sapiens, UniProt P34949); assay: MPI inhibition at elevated mannose 6-phosphate – biochemical, fluorescence intensity, high mannose 6-phosphate, primary screen (AID 1220)
T4 sequence (P34949 whole entry): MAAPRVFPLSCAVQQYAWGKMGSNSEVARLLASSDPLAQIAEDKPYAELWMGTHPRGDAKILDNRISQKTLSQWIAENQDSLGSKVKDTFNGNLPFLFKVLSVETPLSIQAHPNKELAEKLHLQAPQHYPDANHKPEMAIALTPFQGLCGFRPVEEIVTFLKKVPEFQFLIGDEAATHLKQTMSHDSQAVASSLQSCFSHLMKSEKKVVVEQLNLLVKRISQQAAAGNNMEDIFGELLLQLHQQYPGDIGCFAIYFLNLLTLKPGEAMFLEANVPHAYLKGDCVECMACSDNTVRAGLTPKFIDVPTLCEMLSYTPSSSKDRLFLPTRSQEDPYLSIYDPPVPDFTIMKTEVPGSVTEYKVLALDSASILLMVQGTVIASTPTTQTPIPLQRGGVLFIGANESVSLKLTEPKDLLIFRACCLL

[22] = NIH-3T3 fibroblast cytotoxicity, dose response, cytotoxicity control, cell-based, fluorescence, Alamar Blue, secondary assay (AID 2327); type: functional;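 note: NIH-3T3 mouse fibroblasts cultured with fluconazole at 8 µg/mL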
[23] = target: Beta-galactosidase (Escherichia coli, UniProt Q8VNN2); assay: detection-enzyme interference by beta-gal modulators – biochemical, E. coli enzyme, set 3, artefact control for CCR6 antagonist project, dose response (AID 504712); type: functional
[24] = target: T4, Mannose-6-phosphate isomerase; assay: MPI enzyme activity inhibition – biochemical, fluorescence intensity, coupled assay, primary screen (AID 1209)
[25] = fluconazole-exposed Candida albicans growth modulators – fluorescence, retest, confirmation (AID 2467); type: functional, cell-based
[26] = target: T5, DNA dC->dU-editing enzyme APOBEC-3G (Homo sapiens, UniProt Q9HC16); assay: SAR analysis of small molecule inhibitors of APOBEC3G DNA Deaminase via a fluorescence-based single-stranded DNA deaminase assay - Set 2.; type: functional; details: read-out: IC50_Mean
[27] = target: T6, DNA dC->dU-editing enzyme APOBEC-3A (Homo sapiens, UniProt P31941); assay: SAR analysis of small molecule inhibitors of APOBEC3A DNA Deaminase via a fluorescence-based single-stranded DNA deaminase assay.; type: functional; details: read-out: IC50_Mean
[28] = target: T5, DNA dC->dU-editing enzyme APOBEC-3G; assay: inhibition of APOBEC3G ssDNA deamination – biochemical, fluorescence, single-stranded DNA substrate, SAR follow-up (AID 602136); type: functional; details: read-out: IC50_Mean
[29] = target: Large T antigen (Simian virus 40, UniProt P03070); type: functional, Betapolyomavirus macacae;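 note: Confirmatory-stage PubChem screen for compounds that inhibit SV40 T antigen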
[30] = target: T6, DNA dC->dU-editing enzyme APOBEC-3A; assay: SAR analysis of small molecule inhibitors of APOBEC3A DNA Deaminase via a fluorescence-based single-stranded DNA deaminase assay - Set 2.; type: functional; details: read-out: IC50_Mean
[31] = target: T5, DNA dC->dU-editing enzyme APOBEC-3G; assay: Dose Response confirmation of small molecule APOBEC3G DNA Deaminase Inhibitors via a fluorescence-based single-stranded DNA deaminase assay. [Related pubchem assays (depositor defined):AID493012, AID493028]; type: functional
[32] = target: T6, DNA dC->dU-editing enzyme APOBEC-3A; assay: A3A deaminase inhibition for selectivity – biochemical, dose response (AID 504722); type: functional
[33] = DRD fibroblast viability loss – cell-based, non-viral oncogenic, luminescence, dose response (AID 1934); type: functional; details: Homo sapiens
[34] = test system: BJ; assay: BJ-TERT-LT-ST fibroblast viability loss – cell-based, RAS-independent, luminescence, dose response (AID 1935); type: functional; details: Homo sapiens;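 note: BJ fibroblasts immortalized with TERT plus LT and ST oncogenes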
[35] = test system: BJ; assay: cells; type: functional, cell-based; details: Homo sapiens
[36] = test system: Saccharomyces cerevisiae; assay: S. cerevisiae Caspase-1/ASC signal blockers IC50, NALP1 inhibitor project selectivity test (AID 488863); type: functional, organism-based
[37] = test system: BJ; assay: BJ-TERT fibroblast viability loss – cell-based, RAS-independent, luminescence, dose response (AID 1933); type: functional; details: Homo sapiens
[38] = target: NACHT, LRR and PYD domains-containing protein 1 (Homo sapiens, UniProt Q9C000); assay: NALP1 inhibitors in yeast, dose response, luminescent (AID 488860); type: functional
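Throughout, for AC50: cells exposed to compound for roughly 70 hours or longer before luminescence read.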

T5 sequence (Q9HC16 whole entry): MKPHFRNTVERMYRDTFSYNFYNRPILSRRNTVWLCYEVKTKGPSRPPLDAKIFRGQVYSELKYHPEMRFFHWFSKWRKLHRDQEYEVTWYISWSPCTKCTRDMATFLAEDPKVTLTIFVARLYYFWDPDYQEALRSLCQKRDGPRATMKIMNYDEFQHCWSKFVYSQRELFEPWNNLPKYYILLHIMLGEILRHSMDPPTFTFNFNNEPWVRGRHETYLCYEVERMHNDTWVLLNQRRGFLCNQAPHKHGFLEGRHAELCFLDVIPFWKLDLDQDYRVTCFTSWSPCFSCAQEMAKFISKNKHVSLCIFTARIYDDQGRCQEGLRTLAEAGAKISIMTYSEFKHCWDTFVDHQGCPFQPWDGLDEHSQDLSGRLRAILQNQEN
T6 sequence (P31941 whole entry): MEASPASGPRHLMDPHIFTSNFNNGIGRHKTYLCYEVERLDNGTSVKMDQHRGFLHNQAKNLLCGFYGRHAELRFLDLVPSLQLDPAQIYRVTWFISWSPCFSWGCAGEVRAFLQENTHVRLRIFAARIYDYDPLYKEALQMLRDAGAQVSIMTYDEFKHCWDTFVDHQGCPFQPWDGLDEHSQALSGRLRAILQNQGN
Sequence of G-protein coupled receptor 55 (Q9Y2T6 whole entry): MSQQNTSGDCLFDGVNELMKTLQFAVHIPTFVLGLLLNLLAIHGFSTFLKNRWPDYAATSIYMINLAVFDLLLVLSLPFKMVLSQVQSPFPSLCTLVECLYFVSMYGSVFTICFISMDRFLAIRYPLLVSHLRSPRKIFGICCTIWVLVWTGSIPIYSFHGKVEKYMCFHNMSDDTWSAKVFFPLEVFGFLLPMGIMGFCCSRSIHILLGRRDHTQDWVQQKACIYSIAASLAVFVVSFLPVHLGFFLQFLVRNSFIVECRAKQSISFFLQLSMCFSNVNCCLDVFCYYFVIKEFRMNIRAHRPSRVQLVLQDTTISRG
Sequence of Large T antigen (P03070 whole entry): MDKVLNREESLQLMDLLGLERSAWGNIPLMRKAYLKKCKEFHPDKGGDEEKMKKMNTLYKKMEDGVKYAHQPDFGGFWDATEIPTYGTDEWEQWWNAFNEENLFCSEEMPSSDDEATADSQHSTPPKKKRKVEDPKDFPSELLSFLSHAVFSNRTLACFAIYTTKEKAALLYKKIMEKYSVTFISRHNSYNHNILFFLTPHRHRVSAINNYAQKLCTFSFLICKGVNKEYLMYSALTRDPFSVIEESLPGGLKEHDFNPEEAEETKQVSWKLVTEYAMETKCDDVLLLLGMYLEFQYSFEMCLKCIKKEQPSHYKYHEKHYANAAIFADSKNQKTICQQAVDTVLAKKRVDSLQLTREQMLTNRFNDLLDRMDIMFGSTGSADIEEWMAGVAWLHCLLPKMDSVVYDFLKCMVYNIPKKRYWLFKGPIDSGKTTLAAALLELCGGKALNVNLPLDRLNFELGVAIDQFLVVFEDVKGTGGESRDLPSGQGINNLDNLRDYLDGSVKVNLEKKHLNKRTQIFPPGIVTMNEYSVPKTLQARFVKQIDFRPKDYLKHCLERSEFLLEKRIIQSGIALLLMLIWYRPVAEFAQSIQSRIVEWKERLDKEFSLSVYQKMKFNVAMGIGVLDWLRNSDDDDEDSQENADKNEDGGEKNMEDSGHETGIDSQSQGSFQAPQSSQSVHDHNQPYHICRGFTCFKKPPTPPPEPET
Sequence of Envelope glycoprotein gp160 (Q6QLK5 whole entry, the tested form may be a part): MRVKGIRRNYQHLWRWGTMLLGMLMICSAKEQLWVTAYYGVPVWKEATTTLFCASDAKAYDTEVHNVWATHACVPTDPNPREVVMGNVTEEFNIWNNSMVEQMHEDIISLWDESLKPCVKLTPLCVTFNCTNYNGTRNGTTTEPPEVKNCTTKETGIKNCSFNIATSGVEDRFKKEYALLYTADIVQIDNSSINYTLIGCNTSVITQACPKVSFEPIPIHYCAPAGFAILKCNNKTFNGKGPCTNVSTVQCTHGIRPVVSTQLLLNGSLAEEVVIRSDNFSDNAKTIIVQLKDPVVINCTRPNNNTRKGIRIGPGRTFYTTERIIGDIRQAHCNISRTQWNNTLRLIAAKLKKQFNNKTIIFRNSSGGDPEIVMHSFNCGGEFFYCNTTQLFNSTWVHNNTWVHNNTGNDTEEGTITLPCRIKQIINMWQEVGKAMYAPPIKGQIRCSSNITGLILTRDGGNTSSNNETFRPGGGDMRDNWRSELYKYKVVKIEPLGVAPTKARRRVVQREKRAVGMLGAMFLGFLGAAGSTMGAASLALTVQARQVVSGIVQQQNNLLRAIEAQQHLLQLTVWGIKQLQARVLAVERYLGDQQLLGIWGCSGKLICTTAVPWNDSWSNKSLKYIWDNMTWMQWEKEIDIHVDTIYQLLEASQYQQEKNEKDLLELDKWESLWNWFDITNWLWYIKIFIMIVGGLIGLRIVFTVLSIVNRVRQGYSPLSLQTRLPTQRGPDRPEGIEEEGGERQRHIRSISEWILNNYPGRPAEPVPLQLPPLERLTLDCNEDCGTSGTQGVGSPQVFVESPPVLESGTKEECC
Sequence of X-box-binding protein 1 (P17861 whole entry, the tested form may be a part): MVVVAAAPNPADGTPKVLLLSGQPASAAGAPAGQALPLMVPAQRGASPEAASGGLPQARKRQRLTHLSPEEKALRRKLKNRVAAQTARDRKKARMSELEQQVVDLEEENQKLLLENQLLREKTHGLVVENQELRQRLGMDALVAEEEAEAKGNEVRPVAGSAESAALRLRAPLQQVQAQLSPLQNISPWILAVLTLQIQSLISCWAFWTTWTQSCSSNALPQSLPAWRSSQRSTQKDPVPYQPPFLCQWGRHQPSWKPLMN
Sequence of Neurotensin receptor type 1 (P30989 whole entry): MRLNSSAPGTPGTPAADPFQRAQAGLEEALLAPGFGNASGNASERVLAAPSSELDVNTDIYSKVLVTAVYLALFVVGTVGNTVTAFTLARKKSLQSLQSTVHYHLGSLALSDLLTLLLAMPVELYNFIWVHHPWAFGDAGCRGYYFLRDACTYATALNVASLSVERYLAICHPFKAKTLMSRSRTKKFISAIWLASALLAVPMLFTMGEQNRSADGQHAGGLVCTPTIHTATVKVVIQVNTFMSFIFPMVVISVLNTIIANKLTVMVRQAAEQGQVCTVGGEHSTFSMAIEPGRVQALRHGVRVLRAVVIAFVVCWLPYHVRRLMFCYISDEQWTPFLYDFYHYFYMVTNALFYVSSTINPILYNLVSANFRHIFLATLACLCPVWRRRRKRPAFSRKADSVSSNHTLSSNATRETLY
Sequence of Polyadenylate-binding protein 1 (P11940 whole entry): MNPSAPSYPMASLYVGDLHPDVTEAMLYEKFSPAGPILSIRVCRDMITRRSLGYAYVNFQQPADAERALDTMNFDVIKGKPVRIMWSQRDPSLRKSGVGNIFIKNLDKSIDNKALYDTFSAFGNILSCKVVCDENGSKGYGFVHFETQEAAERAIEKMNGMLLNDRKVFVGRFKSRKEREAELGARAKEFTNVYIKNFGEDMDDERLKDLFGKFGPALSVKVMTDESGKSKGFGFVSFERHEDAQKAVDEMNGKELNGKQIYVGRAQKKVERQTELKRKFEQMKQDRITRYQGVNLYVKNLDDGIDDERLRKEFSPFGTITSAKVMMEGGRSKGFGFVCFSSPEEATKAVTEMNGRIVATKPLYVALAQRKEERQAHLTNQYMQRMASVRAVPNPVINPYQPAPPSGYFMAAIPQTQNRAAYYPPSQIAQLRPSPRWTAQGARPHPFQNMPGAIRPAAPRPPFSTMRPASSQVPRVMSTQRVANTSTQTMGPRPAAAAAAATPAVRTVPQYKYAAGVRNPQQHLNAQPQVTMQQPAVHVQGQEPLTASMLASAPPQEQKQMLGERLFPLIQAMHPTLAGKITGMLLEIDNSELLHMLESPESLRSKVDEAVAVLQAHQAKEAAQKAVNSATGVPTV
Sequence of G-protein coupled receptor 35 (Q9HC97 whole entry): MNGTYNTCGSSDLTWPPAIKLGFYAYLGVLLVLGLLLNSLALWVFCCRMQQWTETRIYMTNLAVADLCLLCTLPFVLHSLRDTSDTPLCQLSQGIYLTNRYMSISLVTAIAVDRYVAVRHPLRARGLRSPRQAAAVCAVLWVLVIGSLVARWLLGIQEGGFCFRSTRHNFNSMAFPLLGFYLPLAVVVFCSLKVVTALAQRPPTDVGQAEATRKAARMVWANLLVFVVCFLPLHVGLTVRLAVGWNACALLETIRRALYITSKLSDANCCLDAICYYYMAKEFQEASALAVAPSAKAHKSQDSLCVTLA
Sequence of Nonstructural protein 1 (Q194T2 whole entry): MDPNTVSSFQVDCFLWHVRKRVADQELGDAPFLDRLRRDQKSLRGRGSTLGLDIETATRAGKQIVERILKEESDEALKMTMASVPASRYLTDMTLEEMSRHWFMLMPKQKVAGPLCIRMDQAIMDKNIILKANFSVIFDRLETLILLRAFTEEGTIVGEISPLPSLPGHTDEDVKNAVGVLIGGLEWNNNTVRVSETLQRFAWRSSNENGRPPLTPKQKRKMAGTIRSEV

## O=C(Nc1ccc(Oc2c(F)c(F)c(F)c(F)c2F)cc1)OC1CCN2Cc3ccccc3N=C12 (stereo not drawn)
[1]
  EC50: 19 µM (active)
[2]
  EC50: 12 µM (active)
[3]
  EC50: 8.72 µM (active)
[4]
  AC50: 0.888 µM (active)
[5]
  IC50: 8.78 µM (active)
[6]
  Absolute IC50 (XBP1): 10 µM
[7]
  IC50: 9.84 µM (active)

## COC(=O)c1cnn(-c2ccccc2)c1/C=N/NC(=S)Nc1ccccc1
[8]
  IC50: 1.01 µM (active)
[9]
  IC50: 15.1 µM (inactive)

## O=C(O)c1ccc(Cl)cc1NC(=O)N1CCOCC1
[10]
  IC50: > 25 µM (inactive)

## Cc1c(CCC(=O)O)c(=O)oc2c(C)c3occ(-c4ccc(Cl)cc4)c3cc12
[11]
  IC50: 4.89 µM (active)
[12]
  CC50: > 40 µM (active)
[13]
  IC50: 22.4 µM (inactive)
[14]
  IC50: 19.1 µM (active)
[15]
  IC50: 42.2 µM (active)
[16]
  IC50: 15.1 µM (active)
[17]
  IC50: 8.61 µM (active)

## O=C(CSc1ccc(-c2ccco2)nn1)Nc1ccccc1
[18]
  IC50: 84.4 µM (active)
[19]
  IC50: > 100 µM (inactive)

## Cc1n[nH]c(=S)n(NC(=O)CC(=O)Nn2c(=S)[nH]nc(C)c2=O)c1=O
[20]
  IC50: 6.42 µM (active)
[21]
  IC50: > 50 µM (not active)
[22]
  EC50: > 150 µM (inactive)
[23]
  IC50: > 66.6 µM (inactive)
[24]
  IC50: > 50 µM (not active)
[25]
  EC50: 4.66 µM (active)

## CCCCn1c(=O)c2ccccc2n2c(S)nnc12
[26]
  IC50: 0.345 µM (active)
[27]
  IC50: > 99 µM (inactive)
[28]
  IC50: 2.72 µM (active)
[29]
  IC50: 11.5 µM (active)
[30]
  IC50: > 99 µM (inactive)
[31]
  IC50: 1.7 µM (active)
[32]
  IC50: > 100 µM (inactive)

## CCN1/C(=C/C=C/C=C/c2sc3ccccc3[n+]2CC)Sc2ccccc21 [DITHIAZANINE IODIDE]
[33]
  EC50: 1.68 µM (inconclusive)
[34]
  EC50: 3 µM (inconclusive)
[35]
  EC50: 2.04 µM (inconclusive)
[36]
  IC50: > 100 µM (inactive)
[37]
  EC50: 1.7 µM (inconclusive)
[38]
  IC50: 19.5 µM (active)
